Laboratory results from ChEMBL document CHEMBL2157884, “Scaffold-hopping with zwitterionic CCR3 antagonists: identification and optimisation of a series with good potency and pharmacokinetics leading to the discovery of AZ12436092” (Bioorg Med Chem Lett, 2012).

Key:
[1] = in vitro; conditions: human
[2] = physchem; conditions: buffer, pH 7.4
[3] = Oral bioavailability in rat; assay type: ADME, organism-based; conditions: in vivo
[4] = in vivo; conditions: rat, iv
[5] = Oral bioavailability in dog; assay type: ADME, organism-based, Canis lupus familiaris; conditions: in vivo
[6] = Half life in iv dosed dog; assay type: ADME, organism-based, Canis lupus familiaris; conditions: in vivo
[7] = test system: Hepatocyte; experiment: Intrinsic clearance in rat hepatocytes measured per 10^6 cells; assay type: ADME, cell-based

## O=C(O)[C@H](Cc1cccc(C(F)(F)F)c1)N1CCC(CN2CCC(Oc3ccc(Cl)c(Cl)c3)CC2)CC1
[1]; liver microsomes
  microsomal CLint: 7 µL/min/mg

## O=C(O)[C@H](Cc1cccc(F)c1)N1CCC(CN2CCC(Oc3ccc(Cl)c(Cl)c3)CC2)CC1
[2]
  logD: 2.7

## O=C(O)[C@H](Cc1ccccc1Cl)N1CCC(CN2CCC(Oc3ccc(Cl)c(Cl)c3)CC2)CC1
[1]; liver microsomes
  microsomal CLint: < 5 µL/min/mg

## O=C(O)COc1ccccc1N1CCC(CN2CCC(Oc3ccc(Cl)c(Cl)c3)CC2)CC1
[2]
  logD: 2

## O=C(O)c1cccnc1N1CCC(CN2CCC(Oc3ccc(Cl)c(Cl)c3)CC2)CC1
[2]
  logD: 1.7

## O=C(O)[C@H](Cc1ccc(F)cc1)N1CCC(CN2CCC(Oc3ccc(Cl)cc3)CC2)CC1
[2]
  logD: 1.9

## N#Cc1ccccc1C[C@@H](C(=O)O)N1CCC(CN2CCC(Oc3ccc(Cl)c(Cl)c3)CC2)CC1
[2]
  logD: 2.1
[1]; microsomes
  microsomal CLint: 6 µL/min/mg

## O=C(O)C(c1ccccc1)N1CCO[C@H](CN2CCC(Oc3ccc(Cl)c(Cl)c3)CC2)C1 (mixture of isomers)
[3]
  bioavailability: 36%

## Cc1ccccc1C[C@@H](C(=O)O)N1CCC(CN2CCC(Oc3ccc(Cl)c(Cl)c3)CC2)CC1
[2]
  logD: 2.5
[1]; liver microsomes
  microsomal CLint: < 3 µL/min/mg

## O=C(O)COc1cccc(N2CCC(CN3CCC(Oc4ccc(Cl)c(Cl)c4)CC3)CC2)c1
[2]
  logD: 2

## O=C(O)[C@H](Cc1ccccc1F)N1CCC(CN2CCC(Oc3ccc(Cl)c(Cl)c3)CC2)CC1
[2]
  logD: 2.6

## O=C(O)[C@H](Cc1ccccc1)N1CCC(CN2CCC(Oc3ccc(Cl)c(Cl)c3)CC2)CC1
[4]
  half-life: 12 h
[2]
  logD: 2.5
[1]; liver microsomes
  microsomal CLint: < 3 µL/min/mg
[3]
  bioavailability: 62%

## O=C(O)Cc1ccc(N2CCC(CN3CCC(Oc4ccc(Cl)c(Cl)c4)CC3)CC2)cc1
[2]
  logD: 1.8

## Cc1cc(OC2CCN(CC3CCN([C@@](C)(Cc4ccc(F)cc4)C(=O)O)CC3)CC2)ccc1Cl
[2]
  logD: 2.1
[3]
  bioavailability: 84%

## O=C(O)[C@H](Cc1ccc(F)cc1)N1CCC(CN2CCC(Oc3ccc(Cl)c(Cl)c3)CC2)CC1
[2]
  logD: 2.6
[1]; liver microsomes
  microsomal CLint: 4 µL/min/mg

## O=C(O)[C@@H](c1ccccc1)N1CCC(CN2CCC(Oc3ccc(Cl)c(Cl)c3)CC2)CC1
[4]
  half-life: 4.8 h
[1]; microsomes
  CLint scaled: < 3 mL/min/kg
[3]
  bioavailability: 5%

## N#Cc1cccc(C[C@@H](C(=O)O)N2CCC(CN3CCC(Oc4ccc(Cl)c(Cl)c4)CC3)CC2)c1
[2]
  logD: 2.3
[1]; liver microsomes
  microsomal CLint: < 5 µL/min/mg

## Cc1c(Cl)ccc(OC2CCN(CC3CCN([C@@H](Cc4ccc(F)cc4)C(=O)O)CC3)CC2)c1Cl
[4]
  half-life: 0.8 h
[2]
  logD: 3.2
[1]; liver microsomes
  microsomal CLint: < 3 µL/min/mg

## Cc1c(OC2CCN(CC3CCN([C@@H](Cc4ccc(F)cc4)C(=O)O)CC3)CC2)ccc(C#N)c1Cl
[2]
  logD: 2.2
[1]; microsomes
  microsomal CLint: 6 µL/min/mg

## COc1ccccc1C[C@@H](C(=O)O)N1CCC(CN2CCC(Oc3ccc(Cl)c(Cl)c3)CC2)CC1
[2]
  logD: 2.8
[1]; liver microsomes
  microsomal CLint: 8 µL/min/mg

## O=C(O)c1ccccc1N1CCC(CN2CCC(Oc3ccc(Cl)c(Cl)c3)CC2)CC1
[4]
  half-life: 4.1 h
[2]
  logD: 2.8
[3]
  bioavailability: 58%

## O=C(O)[C@H](Cc1ccc(Cl)cc1)N1CCC(CN2CCC(Oc3ccc(Cl)c(Cl)c3)CC2)CC1
[2]
  logD: 2.9
[1]; liver microsomes
  microsomal CLint: < 3 µL/min/mg

## Cc1cc(Cl)ccc1OC1CCN(CC2CCN([C@@](C)(Cc3ccc(F)cc3)C(=O)O)CC2)CC1
[5]
  bioavailability: 83%
[4]
  half-life: 8.7 h
[2]
  logD: 2.6
[6]
  half-life: 12 h
[3]
  bioavailability: 52%

## O=C(O)[C@H](c1ccccc1)N1CCC(CN2CCC(Oc3ccc(Cl)c(Cl)c3)CC2)CC1
[1]; microsomes
  CLint scaled: < 3 mL/min/kg

## Cc1cccc(C[C@@H](C(=O)O)N2CCC(CN3CCC(Oc4ccc(Cl)c(Cl)c4)CC3)CC2)c1
[2]
  logD: 2.8
[1]; liver microsomes
  microsomal CLint: < 6 µL/min/mg

## O=C(O)Cc1cccc(N2CCC(CN3CCC(Oc4ccc(Cl)c(Cl)c4)CC3)CC2)c1
[2]
  logD: 1.6

## O=C(O)C(c1ccccc1)N1CCC(CN2CCC(Oc3ccc(Cl)c(Cl)c3)CC2)CC1 (racemic)
[1]; microsomes
  CLint scaled: < 3 mL/min/kg

## O=C(O)c1ccc(N2CCC(CN3CCC(Oc4ccc(Cl)c(Cl)c4)CC3)CC2)cc1
[2]
  logD: 2.3

## O=C(O)[C@@H](Cc1ccccc1)N1CCC(CN2CCC(Oc3ccc(Cl)c(Cl)c3)CC2)CC1
[2]
  logD: 2.5
[1]; liver microsomes
  microsomal CLint: < 3 µL/min/mg

## Cc1cc(F)ccc1OC1CCN(CC2CCN([C@@H](Cc3ccc(F)cc3)C(=O)O)CC2)CC1
[1]; liver microsomes
  microsomal CLint: < 3 µL/min/mg

## N#Cc1ccc(C[C@@H](C(=O)O)N2CCC(CN3CCC(Oc4ccc(Cl)c(Cl)c4)CC3)CC2)cc1
[2]
  logD: 2.2

## O=C(O)c1ccc(CN2CCC(CN3CCC(Oc4ccc(Cl)c(Cl)c4)CC3)CC2)cc1
[2]
  logD: 1.1

## Cc1cc(F)ccc1OC1CCN(CC2CCN([C@@](C)(Cc3ccc(F)cc3)C(=O)O)CC2)CC1
[2]
  logD: 2
[3]
  bioavailability: 24%

## O=C(O)C(c1ccccc1)N1CCCC(CN2CCC(Oc3ccc(Cl)c(Cl)c3)CC2)C1 (mixture of isomers)
[1]; liver microsomes
  CLint scaled: < 3 mL/min/kg

## Cc1ccc(S(=O)(=O)NC(=O)N2CCC(N3CCC(Oc4ccc(Cl)c(Cl)c4)CC3)CC2)cc1
[4]
  half-life: 2.7 h
[1]; liver microsomes
  CLint scaled: 1 mL/min/kg
[3]
  bioavailability: 30%

## Cc1ccc(C[C@@H](C(=O)O)N2CCC(CN3CCC(Oc4ccc(Cl)c(Cl)c4)CC3)CC2)cc1
[2]
  logD: 3
[1]; liver microsomes
  microsomal CLint: 14 µL/min/mg

## Cc1c(OC2CCN(CC3CCN([C@@](C)(Cc4ccc(F)cc4)C(=O)O)CC3)CC2)ccc(Cl)c1Cl
[2]
  logD: 3

## Cc1c(OC2CCN(CC3CCN([C@@H](Cc4ccc(F)cc4)C(=O)O)CC3)CC2)ccc(Cl)c1Cl
[4]
  half-life: 10 h
[2]
  logD: 3.5
[1]; liver microsomes
  microsomal CLint: < 3 µL/min/mg
[7]
  CLH: < 3 µL/min/1e6 cells

## O=C(O)C(c1ccccc1)N1CCC(N2CCC(Oc3ccc(Cl)c(Cl)c3)CC2)CC1 (racemic)
[4]
  half-life: 2.4 h
[1]; liver microsomes
  CLint scaled: 6 mL/min/kg
[3]
  bioavailability: 13%

## O=C(O)c1cccc(N2CCC(CN3CCC(Oc4ccc(Cl)c(Cl)c4)CC3)CC2)c1
[2]
  logD: 2.2

## Cc1cc(Cl)ccc1OC1CCN(CC2CCN([C@@H](Cc3ccc(F)cc3)C(=O)O)CC2)CC1
[2]
  logD: 2.5
